From patent publication US12702715B2, “Targeted RNA degradation allows precision repurposing of protein-targeted small molecule medicines to RNA” (University of Florida Research Foundation, Incorporated, priority 2020, dated 2026)

Key:
PDCD4 = PDCD4 Western blot in MDA-MB-231 cells; type: cell-based, human
Experimental: Western Blotting. MDA-MB-231 cells were plated in 6-well plates. When they reached ~50% confluency, they were treated with vehicle (DMSO) or 4. After 48 h, the medium was removed, and the cells were washed with 1×DPBS. The cells were harvested by trypsinization, and total protein was extracted with MPER (Mammalian Protein Extraction Reagent, Thermo Scientific) as previously described^6. Protein concentrations were determined by using a Pierce Micro BCA Protein Assay kit (Fisher Scientific). Approximately 10 μg of total protein from each sample obtained above was resolved on a SDS-polyacrylamide gel (10%), and the protein were transferred to a PVDF ([…]) membrane. After blocking the membrane in 1×TBST with 5% (w/v) nonfat milk for 60 min, the membrane was incubated with 1×TBST containing 5% milk and PDCD4 (Cell Signaling Technology, 9535S) primary antibody (1:1000 dilution) at 4° C. overnight. The membrane was washed with 1×TBST for 10 min three times and then incubated with 1:2000 anti-rabbit IgG horseradish-peroxidase secondary antibody conjugate (Cell Signaling Technology, 7074S) in 1× TBST containing 5% (w/v) milk for about 2 h. After washing with 1×TBST for 10 min three times, PDCD4 protein was detected by using SuperSignal West Pico Chemiluminescent Substrate (Pierce Biotechnology). After imaging, the membrane was stripped with 1× Stripping Buffer (200 mM glycine with 0.1% SDS, pH 2.2) for 120 min at RT, and β-actin level was detected as described for PDCD4 except using β-actin (Cell Signaling Technology, 3700S) primary antibody (1:5000 dilution). ImageJ software was used for quantification of the protein bands.

pre-miR-21 WT RNA = test: In vitro Chem-CLIP and C-Chem-CLIP, pre-miR-21 WT; type: binding, human
Experimental: In Vitro Chemical Cross-linking and Isolation by Pull Down (Chem-CLIP) and Competitive Chem-CLIP (C-Chem-CLIP). Growth medium [RMPI 1640 medium with L-glutamine & 25 mM HEPES (Corning)] was inactivated by heating at 95° C. to for 15 min and slowly cooling to room temperature at benchtop. Pre-miR-21 labeled with ^32P at the 5′-end (~10,000 counts) was folded in growth medium by heating at 95° C. for 1 min and slowly cooling to room temperature. To the samples was added Chem-CLIP probe 4 (1, 5, 20 or 100 μM) or negative control probe 5 (1, 5, 20 or 100 μM), and the mixtures were incubated at 37° C. for 1 h. The samples were then cross-linked by irradiation with 365 nm light for 10 min. The Chem-CLIP probe 4 or control probe 5, whether or not cross-linked to the RNA, was then clicked to disulfide biotin azide (10 mM in DMSO; 10 μL per sample; 1168-10, Click Chemistry Tools) by incubating in a solution containing 1×HEPES buffer (25 mM, pH 7), sodium ascorbate (10 μL/sample, 250 mM in H2O), CuSO4 (10 μL/sample, 50 mM in H2O), THPTA (10 μL/sample, 50 mM in H2O) for 2 h at 37° C. […] The radioactive signal from bound RNAs (on the beads) and unbound RNAs (from the wash steps) were measured by using a Beckman Coulter LS6500 Liquid Scintillation Counter. Enrichment of pre-miR-21 was calculated as previously described^6. […]

pre-miR-21 = test: Cellular Chem-CLIP and C-Chem-CLIP to study occupancy of pre-miR-21; type: cell-based, human
Experimental: Cellular Chem-CLIP and C-Chem-CLIP to Study Occupancy of pre-miR-2L MDA-MB-231 cells in 100 mm dishes (~90% confluency) were treated with 4 or 5 for 6 h at 37° C. Then the cells were washed with 1×DPBS and cross-linked under 365 nm light for 10 min in ice cold 1×DPBS. The cells were harvested by scraping and pelleted by centrifugation. Total RNA was extracted by using the miRNeasy mini kit (Qiagen) per the manufacturer's protocol. Approximately 50 μg of total RNA was clicked to disulfide biotin azide as described in the “In Vitro Chem-CLIP and Competitive Chem-CLIP (C-Chem-CLIP)” section. Streptavidin beads (10 μL) were added, and the samples were incubated, with shaking, for 2 h at 37° C. The beads were then washed with 1× Wash Buffer (10 mM Tris-HCl, pH 7.0, 4 M NaCl, 1 mM EDTA) three times and then once with nanopure water. Bound RNAs were eluted from the beads by incubating with 200 μL of 1:1 TCEP (200 mM) pre-reduced with 600 mM of K2CO3 for 30 min at 37° C. The reaction was quenched by treatment with an equal volume of 400 mM of iodoacetamide for 30 min at room temperature. The supernatant was collected, and the beads were washed once with nanopure water: the water was added to the eluant. The combined eluant was cleaned up using RNAClean XP beads according to the manufacturer's protocol. The obtained RNA was then subjected to RT-qPCR. Enrichment of pre-miR-21 was calculated as previously described^6. Cellular C-Chem-CLIP was completed by pre-treating with 1 (1 or 5 μM) or 3 (1 or 5 μM) for 6 h, followed by dosing with 4 (5 μM) for 6 h. Sample preparation and data analysis were completed as described above for cellular Chem-CLIP studies.

Structure (SMILES): CCOC(=O)C1=C(Nc2ccccc2)S/C(=C\c2ccc(OCCOCCOCCOCCNC(=O)NCCN3CCN(c4ccc5[nH]c(-c6c(N)c7c(F)cccc7[nH]c6=O)nc5c4)CC3)c(O)c2)C1=O [Compound 2, Ribotac-Dovitinib]
- PDCD4 expression (PDCD4; MDA-MB-231, 1 and 2 at 1 μM, LNA-21 at 100 nM): derepressed
- fold more potent downstream effects than 1 (PDCD4; PTEN, PDCD4, invasion): 10 fold

Structure (SMILES): C#CCCC1(CCC(=O)NCCN2CCN(c3ccc4[nH]c(-c5c(N)c6c(F)cccc6[nH]c5=O)nc4c3)CC2)N=N1 [Compound 4]
- enrichment of 32P-labeled pre-miR-21 WT (pre-miR-21 WT RNA; 1, 5, 20 or 100 μM): dose-dependently enriched
- reaction with / pull-down of pre-miR-21 in cells (pre-miR-21; MDA-MB-231): reacted with pre-miR-21

Structure (SMILES): CN1CCN(c2ccc3nc(-c4c(N)c5c(F)cccc5[nH]c4=O)[nH]c3c2)CC1 [Compound 1, Dovitinib, reference compound]
- derepression of PDCD4 expression (PDCD4; 5 μM): ~ 60%
- competition of enrichment of pre-miR-21 by 4 (pre-miR-21 WT RNA; in vitro C-Chem-CLIP): competed off
- competition of pull-down of pre-miR-21 with 4 (pre-miR-21; increasing concentrations, 4 constant): similarly diminished
